Measured values reported in PubChem BioAssay (NCI).
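Results reflect a 48-hour exposure of cells in 96-well plates to compound at five concentrations. TGI denotes the concentration required for complete inhibition of growth.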

Key:
Experiment in all cases: DTP human tumour cell line panel, 48 h
[1] = test system: 786-0 renal
[2] = test system: A498 renal
[3] = test system: A549 NSCLC
[4] = test system: ACHN renal
[5] = test system: BT-549 breast
[6] = test system: CAKI-1 renal
[7] = test system: CCRF-CEM leukemia
[8] = test system: COLO 205 colon
[9] = test system: DU-145 prostate
[10] = test system: EKVX NSCLC
[11] = test system: HCC-2998 colon
[12] = test system: HCT-116 colon
[13] = test system: HCT-15 colon
[14] = test system: HL-60(TB) leukemia
[15] = test system: HOP-92 NSCLC
[16] = test system: HS 578T breast
[17] = test system: HT29 colon
[18] = test system: IGROV1 ovarian
[19] = test system: K-562 leukemia
[20] = test system: KM12 colon
[21] = test system: LOX IMVI melanoma
[22] = test system: M14 melanoma
[23] = test system: MALME-3M melanoma
[24] = test system: MCF7 breast
[25] = test system: MDA-MB-231 breast
[26] = test system: MDA-MB-435
[27] = test system: MDA-N
[28] = test system: MOLT-4 leukemia
[29] = test system: NCI-H226 lung
[30] = test system: NCI-H23 lung
[31] = test system: NCI-H460 lung
[32] = test system: NCI/ADR-RES ovarian
[33] = test system: OVCAR-3 ovarian
[34] = test system: OVCAR-4 ovarian
[35] = test system: OVCAR-5 ovarian
[36] = test system: OVCAR-8 ovarian
[37] = test system: PC-3 prostate
[38] = test system: RXF 393 renal
[39] = test system: SF-268 CNS
[40] = test system: SF-295 CNS
[41] = test system: SF-539 CNS
[42] = test system: SK-MEL-2 melanoma
[43] = test system: SK-MEL-28 melanoma
[44] = test system: SK-OV-3 ovarian
[45] = test system: SN12C renal
[46] = test system: SNB-75 CNS
[47] = test system: SW-620 colon
[48] = test system: T-47D breast
[49] = test system: TK-10 renal
[50] = test system: U251 CNS
[51] = test system: UACC-257 melanoma
[52] = test system: UACC-62 melanoma
[53] = test system: UO-31 renal
[54] = test system: HOP-62 NSCLC
[55] = test system: RPMI-8226 leukemia
[56] = test system: SK-MEL-5 melanoma
[57] = test system: SNB-19 CNS
[58] = test system: NCI-H522 lung

Structure (SMILES): C[C@]12CC[C@@H]3c4cc(Br)c(O)c(Br)c4CC[C@H]3[C@@H]1CCC2=O
- TGI [1]: 46.4 µM
- TGI [2]: > 100 µM
- TGI [3]: 36.2 µM
- TGI [4]: 26.9 µM
- TGI [5]: 57.7 µM
- TGI [6]: 38.9 µM
- TGI [7]: > 100 µM
- TGI [8]: > 100 µM
- TGI [9]: > 100 µM
- TGI [10]: 74.8 µM
- TGI [11]: 26.9 µM
- TGI [12]: > 100 µM
- TGI [13]: 26.1 µM
- TGI [14]: > 100 µM
- TGI [15]: > 100 µM
- TGI [16]: 52.2 µM
- TGI [17]: > 100 µM
- TGI [18]: > 100 µM
- TGI [19]: > 100 µM
- TGI [20]: > 100 µM
- TGI [21]: 71.9 µM
- TGI [22]: > 100 µM
- TGI [23]: > 100 µM
- TGI [24]: 43.9 µM
- TGI [25]: > 100 µM
- TGI [26]: > 100 µM
- TGI [27]: > 100 µM
- TGI [28]: 80.6 µM
- TGI [29]: 26 µM
- TGI [30]: 26.7 µM
- TGI [31]: 48.9 µM
- TGI [32]: 36.9 µM
- TGI [33]: 31.4 µM
- TGI [34]: 41.9 µM
- TGI [35]: 65.2 µM
- TGI [36]: 39.5 µM
- TGI [37]: > 100 µM
- TGI [38]: 36.7 µM
- TGI [39]: 54.3 µM
- TGI [40]: 38.1 µM
- TGI [41]: 39.3 µM
- TGI [42]: 38.3 µM
- TGI [43]: > 100 µM
- TGI [44]: 95.7 µM
- TGI [45]: 65.1 µM
- TGI [46]: 33.3 µM
- TGI [47]: > 100 µM
- TGI [48]: > 100 µM
- TGI [49]: 34.5 µM
- TGI [50]: 36.5 µM
- TGI [51]: 56.1 µM
- TGI [52]: > 100 µM
- TGI [53]: 24.2 µM

Structure (SMILES): CCOC(=O)c1cc(NC(=O)N(CCC#N)CCN(C(=O)N[C@@H](Cc2ccccc2)C(=O)N[C@@H](CC(C)C)C(=O)NC)c2ccccc2)ccc1OC
- TGI [1]: > 100 µM
- TGI [2]: > 100 µM
- TGI [3]: > 100 µM
- TGI [4]: > 100 µM
- TGI [5]: 82.9 µM
- TGI [6]: > 100 µM
- TGI [7]: > 100 µM
- TGI [8]: > 100 µM
- TGI [9]: > 100 µM
- TGI [10]: > 100 µM
- TGI [11]: > 100 µM
- TGI [12]: > 100 µM
- TGI [13]: > 100 µM
- TGI [54]: > 100 µM
- TGI [15]: 71 µM
- TGI [16]: > 100 µM
- TGI [18]: > 100 µM
- TGI [20]: > 100 µM
- TGI [21]: 41.5 µM
- TGI [22]: > 100 µM
- TGI [23]: 73.5 µM
- TGI [24]: > 100 µM
- TGI [25]: > 100 µM
- TGI [26]: > 100 µM
- TGI [27]: > 100 µM
- TGI [28]: 82.1 µM
- TGI [29]: > 100 µM
- TGI [30]: > 100 µM
- TGI [32]: > 100 µM
- TGI [33]: > 100 µM
- TGI [34]: > 100 µM
- TGI [35]: > 100 µM
- TGI [36]: > 100 µM
- TGI [37]: > 100 µM
- TGI [55]: 57.9 µM
- TGI [38]: 75.2 µM
- TGI [39]: > 100 µM
- TGI [40]: > 100 µM
- TGI [41]: 98.5 µM
- TGI [42]: > 100 µM
- TGI [43]: > 100 µM
- TGI [56]: > 100 µM
- TGI [44]: > 100 µM
- TGI [45]: > 100 µM
- TGI [57]: > 100 µM
- TGI [46]: > 100 µM
- TGI [48]: > 100 µM
- TGI [49]: > 100 µM
- TGI [51]: 55 µM
- TGI [52]: 24.9 µM
- TGI [53]: > 100 µM

Structure (SMILES): CC(=O)SSC1(Cl)C(C)(C)C(Cl)(SSC(C)=O)C1(C)C (stereo unspecified)
- TGI [1]: > 100 µM
- TGI [2]: > 100 µM
- TGI [3]: > 100 µM
- TGI [4]: > 100 µM
- TGI [5]: > 100 µM
- TGI [6]: > 100 µM
- TGI [7]: 60.2 µM
- TGI [8]: > 100 µM
- TGI [9]: > 100 µM
- TGI [10]: > 100 µM
- TGI [12]: > 100 µM
- TGI [13]: > 100 µM
- TGI [54]: > 100 µM
- TGI [15]: > 100 µM
- TGI [16]: > 100 µM
- TGI [17]: > 100 µM
- TGI [18]: > 100 µM
- TGI [20]: > 100 µM
- TGI [21]: > 100 µM
- TGI [22]: > 100 µM
- TGI [23]: > 100 µM
- TGI [24]: > 100 µM
- TGI [25]: > 100 µM
- TGI [26]: > 100 µM
- TGI [27]: > 100 µM
- TGI [29]: > 100 µM
- TGI [30]: > 100 µM
- TGI [31]: 82.9 µM
- TGI [58]: > 100 µM
- TGI [32]: > 100 µM
- TGI [33]: > 100 µM
- TGI [34]: > 100 µM
- TGI [35]: > 100 µM
- TGI [36]: > 100 µM
- TGI [37]: > 100 µM
- TGI [38]: 48.5 µM
- TGI [39]: > 100 µM
- TGI [40]: > 100 µM
- TGI [41]: 61.5 µM
- TGI [42]: > 100 µM
- TGI [43]: > 100 µM
- TGI [56]: > 100 µM
- TGI [44]: > 100 µM
- TGI [45]: > 100 µM
- TGI [57]: > 100 µM
- TGI [46]: 82.5 µM
- TGI [47]: > 100 µM
- TGI [48]: 51.7 µM
- TGI [49]: > 100 µM
- TGI [50]: > 100 µM
- TGI [51]: > 100 µM
- TGI [52]: > 100 µM
- TGI [53]: > 100 µM

Structure (SMILES): COc1cc(C2c3[nH]c4ccccc4c3[C@@H](Nc3ccc(F)cc3)[C@H]3COC(=O)N23)cc(OC)c1O (stereo partly specified)
- TGI [2]: 7.55 µM
- TGI [3]: 3.31 µM
- TGI [4]: 1.34 µM
- TGI [5]: 4.28 µM
- TGI [6]: 3.22 µM
- TGI [7]: 3.93 µM
- TGI [9]: 4.07 µM
- TGI [10]: > 10 µM
- TGI [11]: 3.34 µM
- TGI [12]: > 10 µM
- TGI [13]: 5.35 µM
- TGI [54]: 3.42 µM
- TGI [15]: > 10 µM
- TGI [16]: 2.11 µM
- TGI [17]: > 10 µM
- TGI [18]: 9.24 µM
- TGI [19]: > 10 µM
- TGI [20]: 6.5 µM
- TGI [21]: 3.26 µM
- TGI [22]: 9.55 µM
- TGI [23]: 7.28 µM
- TGI [24]: > 10 µM
- TGI [25]: > 10 µM
- TGI [26]: > 10 µM
- TGI [27]: > 10 µM
- TGI [29]: 2.9 µM
- TGI [30]: 5.18 µM
- TGI [31]: 4.74 µM
- TGI [32]: > 10 µM
- TGI [33]: 6.09 µM
- TGI [34]: > 10 µM
- TGI [35]: 9.08 µM
- TGI [36]: > 10 µM
- TGI [37]: > 10 µM
- TGI [39]: 7.01 µM
- TGI [40]: 3.69 µM
- TGI [41]: 3.17 µM
- TGI [43]: > 10 µM
- TGI [56]: 2.48 µM
- TGI [44]: 3.95 µM
- TGI [45]: 5.57 µM
- TGI [57]: 7.09 µM
- TGI [46]: 6.08 µM
- TGI [47]: 5.74 µM
- TGI [48]: > 10 µM
- TGI [49]: 4.85 µM
- TGI [50]: 7.96 µM
- TGI [51]: > 10 µM
- TGI [52]: 4.6 µM
- TGI [53]: 2.67 µM

Structure (SMILES): O=C(CON1C(=O)c2ccccc2C1=O)c1ccccc1
- TGI [1]: > 100 µM
- TGI [2]: > 100 µM
- TGI [3]: > 100 µM
- TGI [4]: > 100 µM
- TGI [5]: > 100 µM
- TGI [6]: 34.8 µM
- TGI [8]: > 100 µM
- TGI [9]: > 100 µM
- TGI [10]: > 100 µM
- TGI [12]: > 100 µM
- TGI [13]: > 100 µM
- TGI [54]: > 100 µM
- TGI [15]: > 100 µM
- TGI [16]: > 100 µM
- TGI [17]: > 100 µM
- TGI [18]: > 100 µM
- TGI [19]: > 100 µM
- TGI [20]: > 100 µM
- TGI [21]: > 100 µM
- TGI [22]: > 100 µM
- TGI [23]: 56.9 µM
- TGI [24]: > 100 µM
- TGI [25]: > 100 µM
- TGI [26]: > 100 µM
- TGI [27]: > 100 µM
- TGI [29]: > 100 µM
- TGI [30]: > 100 µM
- TGI [31]: > 100 µM
- TGI [58]: 36.6 µM
- TGI [32]: > 100 µM
- TGI [33]: > 100 µM
- TGI [34]: > 100 µM
- TGI [35]: > 100 µM
- TGI [36]: > 100 µM
- TGI [37]: > 100 µM
- TGI [55]: 40.4 µM
- TGI [38]: > 100 µM
- TGI [39]: > 100 µM
- TGI [40]: > 100 µM
- TGI [41]: > 100 µM
- TGI [42]: > 100 µM
- TGI [43]: > 100 µM
- TGI [56]: > 100 µM
- TGI [44]: > 100 µM
- TGI [45]: > 100 µM
- TGI [57]: > 100 µM
- TGI [46]: > 100 µM
- TGI [47]: 69.1 µM
- TGI [48]: 52.6 µM
- TGI [49]: 55 µM
- TGI [50]: > 100 µM
- TGI [51]: > 100 µM
- TGI [52]: > 100 µM
- TGI [53]: 40.7 µM
